Experimental data reported in patent US20240307351A1, “AGENT FOR ANTI-AGING OR FOR CELLULAR REJUVENATION” (TOHOKU UNIVERSITY, priority 2022, published 2024).

Tests used:
[1] = test system: various SIRTs (SIRT1, SIRT2, SIRT3, SIRT5, SIRT6, and SIRT7); assay: Expression levels of various SIRTs in HEI-OC1 cells by Western blotting; type: cell-based, mouse; conditions: HEI-OC1 cell line, 1, 3, 10 or 30 μM, 24 hours, compared with absence of MA5 (0.1% DMSO)
Experimental: HEI-OC1 cells (mouse inner ear cell line) at 1×10^6 cell/dish were seeded and cultured in a dish containing 10 mL of a culture solution (low-glucose-containing DMEM medium (glucose concentration of 1.0 g/dL) to which 10 wt. % of FBS was added). After one day, 0.1% DMSO as a solvent of the compound or Compound #5 at various concentrations (1 μM, 3 μM, 10 μM, or 30 μM) was added, and the mixture was cultured for 24 hours ([Compound #5 addition group]). After completion of culture, the cells were collected, disrupted by a typical method, and the expression levels of various SIRTs (SIRT1, SIRT2, SIRT3, SIRT5, SIRT6, and SIRT7) in the cells were analyzed by Western blotting (see FIGS. 1-1 and 1-2).

[2] = test system: NDUFS4 homozygous knockout mice (Ndufs4−/−mice); assay: HE staining of brown adipose tissue of Ndufs4−/− mice; type: in vivo, mouse; conditions: 10 mg/day per kg, 50 days, compared with CMC administration group
Experimental: Compound #5 was administered to NDUFS4 homozygous knockout mice (Ndufs4−/−mice) (28 days old) at a dose of 10 mg/day per kg of mouse weight for 50 days ([Compound #5 administration group]).
In addition, CMC (carboxymethylcellulose) was administered to NDUFS4 homozygous knockout mice (Ndufs4−/−mice) at a dose of 10 mg/day per kg of mouse weight for 50 days ([CMC administration group; Control group]).
Since the NDUFS4 homozygous knockout mice are mice with abnormal mitochondrial function and the abnormal mitochondrial function is one of aging phenomena, the NDUFS4 homozygous knockout mice can be used as one type of aging model mice.

SIRTI protein = assay: Amount of SIRT1 protein in RH30 cells by Western blotting; type: cell-based, human; conditions: 30 μM, 24 hours, compared with Control group (DMSO)
Experimental: RH30 cells (human rhabdomyosarcoma cell line; gli gene expression+, N-myc gene expression+) at 1×10^6 cell/dish were seeded and cultured in a dish containing 10 mL of a culture solution (low-glucose-containing DMEM medium (glucose concentration of 1.0 g/dL) to which 10 wt. % of FBS was added). One day later, Compound #5 was added to have a concentration of 30 μM, and the mixture was cultured for 24 hours ([Compound #5 addition group]). Compound #9, Compound #13, Compound #21, Compound #30, or Compound #35 as the present compound was added in place of Compound #5, and the mixture was cultured in the same manner, respectively, as [Compound #9 addition group], [Compound #13 addition group], [Compound #21 addition group], [Compound #30 addition group], and […].
On the other hand, as a control, DMSO (dimethyl sulfoxide) was added to have a concentration of 0.2 wt. %, and the mixture was cultured for 24 hours ([Control group]).
After completion of culture, the cells were recovered, disrupted by a typical method, and the amount of each of the proteins (SIRTI proteins, etc.) in the cells was detected by Western blotting. Further, the results of quantification of each band in the detection results of the Western blotting in FIG. 6 through normalization with the band of β-actin as a loading control are shown in FIG. 7.

[3] = test system: muscle cells of aged mice; assay: RNA-Seq, pathway and ChIP-Atlas analysis of muscle cells of aged mice; type: in vivo, mouse; conditions: oral, 50 mg/kg/day, 2 months
Experimental: Water-suspended Compound #5 was orally administered to C57BL6 mice (92 weeks old) at a dose of 50 mg/kg/day per kg of mouse weight for 2 months ([MA5 addition group], n=5). After 2 months of oral administration, the mice were 101 weeks old.
In addition, water was orally administered to C57BL6 mice (92 weeks old) for 2 months ([Vehicle group], n=5). After 2 months of oral administration, the mice were 101 weeks old.
RNA sequencing (RNA-Seq) analysis was performed on the muscle cells of aged mice in [MA5 addition group] and [Vehicle group] to identify genes whose expression levels changed (increased or decreased) in [MA5 addition group] and [Vehicle group] compared to the muscle cells of young mice before administration.
Based on the names of genes whose expression levels increased or decreased in the aged mice of [MA5 addition group] as compared with the aged mice of [Vehicle group] in the RNA sequence (RNA-Seq) analysis, pathway analysis of genes whose expression levels varied in muscle cells of the aged mice of [MA5 addition group] was performed.
The results of the names of the genes whose expression levels increased or decreased in the aged mice of [MA5 addition group] as compared with the aged mice of [Vehicle group] in the RNA sequence (RNA-Seq) analysis were used to perform integrated analysis with ChIP-Atlas to investigate transcription factors possibly related to these genes.

[4] = test system: fibrosis-related genes (aSMA and Colla1); assay: Real-time PCR of fibrosis-related genes in renal tissue of α-Klotho gene-deficient mice; type: in vivo; conditions: oral, 10 mg/kg mouse weight/day, 28 to 60 days old
Experimental: Water-suspended Compound #5 was orally administered to α-Klotho gene-deficient mice (28 days old) at a dose of 10 mg/kg mouse weight/day until 60 days old (Klotho homo KO mouse administration group, n=3).
In addition, water was orally administered to wild-type mice (28 days old) and α-Klotho gene-deficient mice (28 days old) until 60 days old (n=3 for each of the wild-type non-administrated group and the Klotho homo KO mouse non-administrated group).
Renal tissue was collected from each 60-day-old mouse according to a standard method, total RNA was extracted using a commercially available column extraction kit (RNeasy Micro Kit, manufactured by QIAGEN), and cDNA was synthesized from 1 μg of total RNA using ReverTra Ace(manufactured by TOYOBO CO., Ltd.). Thereafter, to quantify mRNA derived from two types of fibrosis-related genes (aSMA and Colla1) and mRNA derived from GAPDH as an internal standard, real-time PCR was performed according to a standard method using QuantStudio 5 Real-time PCR system (manufactured by Applied Biosystems) as a measuring instrument and THUNDERBIRD SYBR qPCR MasterMix (manufactured by TOYOBO CO., Ltd.) as a reaction liquid.

[5] = Plasma metabolite analysis by CE-TOFMS in α-Klotho gene-deficient mice; type: in vivo; conditions: oral, 10 mg/kg mouse weight/day, 28 to 60 days old
Experimental: Water-suspended Compound #5 was orally administered to α-Klotho gene-deficient mice (28 days old) at a dose of 10 mg/kg mouse weight/day until 60 days old (Klotho homo KO mouse administration group, n=2).
In addition, water was orally administered to wild-type mice (28 days old) and α-Klotho gene-deficient mice (28 days old) until 60 days old (n=2 for each of the wild-type non-administrated group and the Klotho homo KO mouse non-administrated group).
Plasma was prepared from each 60-day-old mouse, and the effect of administration of Compound #5 on plasma metabolites was subjected to target analysis (comprehensive analysis) by CE-TOFMS (manufactured by Human Metabolome Technologies, Inc.).

Structure (SMILES): O=C(CC(C(=O)O)c1c[nH]c2ccccc12)c1ccc(F)cc1F (centres unmarked) [Compound #5, 4-(2,4-difluorophenyl)-2-(1H-indole-3-yl)-4-oxo-butanoic acid]
- expression levels of various SIRTs in the cells [1]: increased
- size of lipid droplets in brown adipose tissue [2]: decrease
- amount of SIRTI protein in cells (SIRTI protein): increased
- MAPK cascade (pathway analysis) [3]: inhibition
- insulin signaling pathway (pathway analysis) [3]: enhancement
- longevity regulating pathway (pathway analysis) [3]: enhancement
- transcription factors associated with genes whose expression was increased (ChIP-Atlas) ([3]; Table 1): FOXO1 known as longevity genes, KLF4, which is one of reprogramming factors necessary for the production of iPS cells, and KLF2 and KLF5
- expression level of Klf4 Gene ([3]; vs Vehicle group): significantly increased
- expression level of Myc Gene ([3]; vs Vehicle group): significantly increased
- expression level of Nanog Gene ([3]; vs Vehicle group): tended to increase
- expression level of Pou5f1 (Oct4) Gene ([3]; vs Vehicle group): tended to increase
- expression level of Sox2 Gene ([3]; vs Vehicle group): significantly increased
- renal fibrosis progressing with aging (aSMA and Colla1 mRNA) [4]: inhibited
- spermidine in plasma [5]: increased
